Columns and labels:
[1] = tested on: hyaluronic acid production in human dermal fibroblasts; assay: Hyaluronic acid synthesis effect in vitro (Hyaluronan ELISA); format: cell-based; conditions: 24 hours, concentrations of Table 2, (sample − negative control) ÷ negative control × 100
Source text: (§1) For the evaluation of in vitro skin improvement efficacy, chondroitin sulfate (CS), glutamine (Q), arginine (R), Examples 1 and 2 (CS-R complex and CS-Q complex), and Comparative Examples 1 and 2 (CS/R mixture and CS/Q mixture) were used as culture solutions, and were ultimately included at the concentrations shown in the following Table 2 in each evaluation.
To compare the skin moisturizing effects of chondroitin sulfate (CS), arginine (R), and glutamine (Q), a simple mixture of chondroitin sulfate and an amino acid (CS/AA mixture), and a chondroitin sulfate-amino acid complex (CS-AA complex), human dermal fibroblasts were used to confirm whether the production of hyaluronic acid was increased.
Specifically, fibroblasts were cultured in a DMEM medium containing 10% FBS until the cells occupied 80% of the culture dish. Subsequently, the cells were treated with each sample at a predetermined concentration according to Table 2 for 24 hours, and then the concentration of hyaluronic acid was measured using a Hyaluronan ELISA kit (R&D systems, catalog No. DY3614-05).

[2] = tested on: type I collagen (procollagen type 1-C propeptide, PICP) in human fibroblasts; assay: Collagen synthesis effect in vitro (PICP EIA); format: cell-based; conditions: 48 hours, concentrations of Table 2, (sample − negative control) ÷ negative control × 100
Source text: as §1
To compare the wrinkle amelioration effects of chondroitin sulfate (CS), arginine (R), and glutamine (Q), a simple mixture of chondroitin sulfate and an amino acid (CS/AA mixture), and a chondroitin sulfate-amino acid complex (CS-AA complex), the effect of promoting the synthesis of type I collagen was confirmed using skin fibroblasts. For the evaluation, procollagen type 1-C propeptide (PICP), which is typically synthesized in the highest amount in fibroblasts, was quantified.
Specifically, human fibroblasts were aliquoted at 1×10^5 cells/well in a 48-well culture plate and cultured in a Dulbecco's Modified Eagle's Medium (DMEM, Gibco) medium containing 10% fetal bovine serum (FBS) for 24 hours. Subsequently, the medium was replaced with a serum-free DMEM medium containing 2 wt % of each culture solution according to Table 2 to treat cells with an analyte for 48 hours. Next, 20 μl of the culture supernatant was taken to measure the degree of collagen increase at each concentration at 450 nm using a Procollagen Type-1-C-peptide Enzyme Immuno Assay (PICP EIA) kit.

human fibroblasts = assay: Cell activity effect in vitro (CCK-8); format: cell-based; conditions: 48 hours, CCK-8, concentrations of Table 2, (sample − negative control) ÷ negative control × 100, in %
Source text: as §1
To compare the effects of chondroitin sulfate (CS), arginine (R), and glutamine (Q), a simple mixture of chondroitin sulfate and an amino acid (CS/AA mixture), and a chondroitin sulfate-amino acid complex (CS-AA complex) on skin cell activity, human fibroblast culture was used to confirm whether cell activity was increased.
Specifically, human fibroblasts were aliquoted at 5×10^3 cells/well and cultured in a DMEM medium containing 10% FBS for 24 hours. Subsequently, the culture medium was removed, and the cells were treated with each sample at a predetermined concentration according to Table 2 for 48 hours. Then, a reagent provided in a CCK-8 kit (DOJINDO, Cell Counting Kit-8, catalog No. CK04) was added, the resulting mixture was incubated for 4 hours, and then absorbance was measured at 450 nm using an ELISA reader.

[3] = tested on: Raw 264.7 cells (NO production); assay: Suppression of NO production in LPS-treated macrophages (Griess); format: cell-based, mouse; conditions: Raw264.7 cells, sample 30 minutes then 500 ng/ml LPS 18 hours, concentrations of Table 2
Source text: as §1
To compare the skin soothing effects of chondroitin sulfate (CS), arginine (R), and glutamine (Q), a simple mixture of chondroitin sulfate and an amino acid (CS/AA mixture), and a chondroitin sulfate-amino acid complex (CS-AA complex), mouse macrophage cell line Raw 264.7 cells (ATCC, catalog No. CRL-2788) was used to confirm whether the production of NO was suppressed.
Specifically, Raw264.7 cells were aliquoted at 1 to 2×10^5 cells/ml in a 24-well tissue culture plate and cultured in a DMEM medium containing 10% FBS for 24 hours. The culture was carried out in a 5% CO2 incubator. Subsequently, the medium was replaced with a serum-free medium, and the cells were starved for 12 hours, and then treated with each sample at a predetermined concentration according to Table 2 for 30 minutes. After the sample treatment was completed, the cells were treated with 500 ng/ml lipopolysaccharides (LPS, SIGMA, catalog No. L43901) and then cultured for an additional 18 hours. Next, the culture supernatant was taken, transferred to a 96-well tissue culture plate and reacted with GREISS reagent (SIGMA, catalog No. G4410) at room temperature for 15 minutes, and then absorbance was measured at 540 nm using an ELISA reader. Thereafter, NO was quantified using the measured absorbance, and the reduction rate of NO produced in the experimental group compared to the positive control treated with 20 μg/ml of L-NMMA was calculated as (the value of the positive control−the value of the sample treatment group)÷the value of the negative control×100, which was used as a NO production suppression ability.

[4] = tested on: Zonula Occludens-1 (ZO-1) in HaCaT cells; assay: mRNA expression of tight junction protein ZO-1 (real-time PCR); format: cell-based, human; conditions: 24 hours, concentrations of Table 2, (sample − negative control) ÷ negative control × 100
Source text: as §1
To compare the skin barrier recovery effects of chondroitin sulfate (CS), glutamine (Q), a simple mixture of chondroitin sulfate and glutamine (CS/Q mixture), and a chondroitin sulfate-glutamine complex (CS-Q complex), it was confirmed whether the expression of Zonula Occludens-1 (ZO-1), one of the proteins that make up the tight junctions at the intercellular junctions in the skin barrier, was increased.
Specifically, human keratinocyte cell line HaCaT cells were first cultured at 37° C. in a 5% CO2 environment in a DMEM medium (Gibco, Waltham, MA, USA) supplemented with 10% fetal bovine serum (FBS, Gibco, Waltham, MA, USA), […] penicillin, and […] streptomycin. […] The concentration of the extracted RNA was quantified, and 1 μg of RNA was reacted with a cDNA synthesis kit (ET21100, PhileKorea Technology) at 42° C. for 30 minutes and 72° C. for 10 minutes to synthesize cDNA. […]

[5] = Zeta-potential analysis by dynamic light scattering (Zetasizer Nano-ZS); format: physicochemical; conditions: dispersed in distilled water, triplicate, several peaks printed with their share (%)
Experimental: To analyze the binding characteristics in the complexes of Examples 1 and 2, particle size analysis and zeta-potential analysis were performed. Chondroitin sulfate (CS), arginine (R), and glutamine (Q), a simple mixture of chondroitin sulfate and arginine or glutamine (CS/R or CS/Q mixture), and a complex of chondroitin sulfate and arginine or glutamine (CS-R or CS-Q complex) were analyzed by dynamic light scattering using a Zetasizer Nano-ZS (Malvern Instruments, Worcester, UK) to measure the particle size (effective dynamic diameter), particle size distribution and zeta potential of the samples dispersed on a colloid. Samples for the measurements were prepared by being dispersed in distilled water, and an automatic temperature-controlled cell with a scattering angle of 90° and software provided by the manufacturer were used. After measurement was conducted in triplicate for each sample, a zeta-potential value was calculated, and the results are shown in the following Table 1.

[6] = tested on: Staphylococcus epidermidis; assay: Growth rate of beneficial skin bacterium (optical density); format: cell-based; conditions: TSB medium, 30 to 37° C., 6 to 18 hours, concentrations of Table 2; relative to negative control
Experimental: To evaluate the prebiotic ability of Example 2, the degrees of enhancement in beneficial bacteria among the skin resident flora were compared before and after the CS or Example 2 treatment. Staphylococcus epidermidis was selected as a representative beneficial bacterium, and the growth rates of the beneficial bacterium were compared before and after treatment with the materials.
The growth rate of the beneficial bacterium was evaluated by the following method. A sterile liquid medium was prepared using a commercial tryptic soy broth (TSB, DFICO) medium, and a glycerol stock of S. epidermidis was inoculated into the sterile liquid TSB medium and pre-cultured at 30 to 37° C. for 6 to 18 hours. Such a pre-culture was performed once to twice. Thereafter, chondroitin sulfate (CS) and Example 2 were added to a sterile liquid TSB medium at each predetermined concentration according to Table 2, and the preculture solution was inoculated to culture cells at 30 to 37° C. for 6 to 18 hours.
After culture, the optical density (OD) immediately after inoculation and the optical density during the stationary phase of growth were measured, and the ratio of these values (growth rate) was compared. […] After the evaluation was carried out three times, the average growth rate, the standard deviation, and the like were calculated, and then the significance was verified by a t-test.

Compound	Hyaluronic acid synthesis ability [1]	Collagen type 1 synthesis ability [2]	Cell activity ability (human fibroblasts)	NO production suppression ability [3]	ZO-1 expression ability [4]	Zeta potential (mV) [5] [mV]	S. epidermidis growth rate (%) [6] [%]
CC1=C(/C=C/C(C)=C/C=C/C(C)=C/C(=O)O)C(C)(C)CCC1 [Retinoic acid]	16.8						
NC(=O)CC[C@H](N)C(=O)O [Glutamine (Q), glutamine]	2.8	2.78	−11.66	20.4	11.0		
TGF-b		21.15					
N=C(N)NCCC[C@H](N)C(=O)O [Arginine (R), arginine]	−2.1	−12.58	−12.79	30.3		−4	
chondroitin sulfate [Chondroitin sulfate (CS)]	1.8	3.55	8.74	25.6	25.0	−18	6.081
